The target in this assay is human PCSK9 (Homo sapiens, UniProt Q8NBP7). The assay can be described thus: PCSK9 ligand binding assay (TR-FRET): interference with binding of human PCSK9 to human LDLR. The note with it: for IC50: Human PCSK9 Alexa Fluor 647 / Human LDLR extracellular domain-Europium Kryptate; for Max % inhibition: efficacy (Amax), 100% = 1 uM unlabeled human PCSK9, 0% = DMSO. As to the method: Example 10: PCSK9 Ligand Binding Assay
The PCSK9 binding of the compounds of the disclosure were measured using a time resolved fluorescence resonance energy transfer (TR-FRET) assay. This time resolved fluorescence resonance energy transfer (TR-FRET) assay measures the ability of a compound of the present disclosure to interfere with the binding of human PCSK9 to human LDLR, providing measures of both potency (IC50) and efficacy (Amax).
Human PCSK9 Alexa Fluor 647
Human LDLR extracellular domain-Europium Kryptate
Proxi plate-low volume assay plate (PerkinElmer #6008280)
Greiner V-bottom (Greiner BioOne #781280)
Assay Buffer • 20 mM HEPES, pH 7.5 • 150 mM NaCl • 1 mM CaCl2 • 0.01% v/v Tween20 • 0.01% w/v BSA
A master compound plate was prepared in a Greiner V bottom plate by diluting compounds of the disclosure in dimethylsulfoxide to the correct concentration for the desired top concentration based on the desired final concentration: for a 30 uM final concentration the master plate concentration is 1.5 mM (68 uL DMSO+12 uL 10 mM of a compound of the disclosure), for a 10 uM final concentration the master plate concentration is 0.5 mM (76 uL DMSO+4 uL 10 mM of a compound of the disclosure), for a 3 uM final concentration the master plate concentration is 150 uM (69 uL DMSO+1 uL 10 mM of a compound of the disclosure). These solutions were pipetted into columns 1 and 11 of the compound plate. Threefold serial dilutions were generated in columns 2-10 and 12-20 of the compound plate by transferring 10 uL into 20 uL of DMSO. Columns 21 and 22 of the compound plate were negative controls containing DMSO alone.
An intermediate plate was generated in a Greiner V bottom plate by transferring 8 uL from each well of the master plate into a corresponding well containing 92 uL of assay buffer and mixing thoroughly.
A Proxi plate-low volume assay plate was used for the assay. To all wells of the plate was added 10 uL of 16 nM Human PCSK9 Alexa Fluor 647, followed by 5 uL from the intermediate plate. For the positive control wells in columns 23 and 24 of the plate, 5 uL of unlabeled human PCSK9 was added at 4 uM in assay buffer containing 8% DMSO. Following a 30 minute incubation, 5 uL of 4 nM Human LDLR extracellular domain-Europium Kryptate was added and the mixture was incubated for an additional 2 hours.
The TR-FRET signal was measured on an EnVision or PheraStar instrument with a 60 ms delay, 330 nm excitation and 665 nm emission (FRET), and 330 nm excitation and 615 nm (Europium). The FRET ratio (FRET/Europium) was used for calculations.
No inhibition (0%) was observed from the wells containing DMSO (Control) in columns 21 and 22 of the compound plate. Full inhibition (100%) was observed from the wells containing 1 uM human PCSK9 (Control) in columns 23 and 24 of the plate. Data is expressed as percent inhibition: (value—0%)/(100%-0%).
(TR-FRET usually uses a lanthanide donor and a delayed reading to cut background.)

human PCSK9, sequence (Q8NBP7 153-692): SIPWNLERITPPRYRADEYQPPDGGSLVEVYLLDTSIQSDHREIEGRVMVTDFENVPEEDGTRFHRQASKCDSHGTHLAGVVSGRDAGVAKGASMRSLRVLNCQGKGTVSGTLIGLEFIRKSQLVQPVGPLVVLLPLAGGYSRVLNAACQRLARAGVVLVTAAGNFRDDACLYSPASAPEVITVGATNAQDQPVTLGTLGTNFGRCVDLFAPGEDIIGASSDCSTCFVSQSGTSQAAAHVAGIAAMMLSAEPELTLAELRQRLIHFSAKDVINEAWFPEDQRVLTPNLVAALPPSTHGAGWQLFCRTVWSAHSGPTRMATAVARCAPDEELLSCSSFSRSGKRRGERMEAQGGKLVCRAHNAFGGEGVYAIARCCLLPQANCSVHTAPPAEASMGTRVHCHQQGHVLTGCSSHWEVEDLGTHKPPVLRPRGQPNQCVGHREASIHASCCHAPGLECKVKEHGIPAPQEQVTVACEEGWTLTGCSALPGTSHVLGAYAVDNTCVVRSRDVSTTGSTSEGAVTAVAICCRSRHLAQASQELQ
human PCSK9, sequence (Q8NBP7 31-152 partner limits assumed): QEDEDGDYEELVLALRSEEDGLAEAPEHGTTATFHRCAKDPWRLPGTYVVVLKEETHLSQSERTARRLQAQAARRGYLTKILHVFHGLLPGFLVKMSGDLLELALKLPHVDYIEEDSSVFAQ

Usually IC50 stands for the concentration that gives 50% inhibition. Higher therefore signals weaker potency. As for `C[C@H]1C(=O)N[C@@H](CO)C(=O)N[C@@]2(Cc3ccc(Cl)cc3)CCCN(C2)C(=O)[C@H](CC(F)(F)F)CC(=O)N1Cc1c(F)cc(Cl)cc1Oc1ccc(-c2cnc(CN3CCCC3)n2C)cc1` [Compound 15, (3S, 7S, 10S, 13R)-6-(4-chloro-2-fluoro-6-(4-(1-methyl-2-(pyrrolidin-1-ylmethyl)-1H-imidazol-5-yl)phenoxy)benzyl)-13-(4-chlorobenzyl)-10-(hydroxymethyl)-7-methyl-3-(2,2,2-trifluoroethyl)-1,6,9,12-tetraazabicyclo[11.3.1]heptadecane-2,5,8,11-tetraone], the half-inhibitory concentration (IC50) turned out to be 0.342 nM and the Max % inhibition is 119.0%.
For `C[C@H]1C(=O)N[C@@H](CO)C(=O)N[C@@]2(Cc3ccc(Cl)cc3)CCCN(C2)C(=O)[C@H]([C@H]2CCc3ncccc32)CC(=O)N1Cc1ccc(Cl)cc1Oc1ccc(-c2cnc(CN(C)C)n2C)cc1.Cl` [Compound 16, (3S, 7S, 10S, 13R)-6-(4-chloro-2-(4-(2-((dimethylamino)methyl)-1-methyl-1H-imidazol-5-yl)phenoxy)benzyl)-13-(4-chlorobenzyl)-3-((R)-6,7-dihydro-5H-cyclopenta[b]pyridin-5-yl)-10-(hydroxymethyl)-7-methyl-1,6,9,12-tetraazabicyclo[11.3.1]heptadecane-2,5,8,11-tetraone] the same measures were 0.529 nM and 97.5%.
Consider `COC[C@@H]1NC(=O)[C@H](C)N(Cc2ncc(Cl)cc2Oc2ccc(-c3cnc(CN(C)C)n3C)cc2)C(=O)C[C@@H](Cc2ccccc2)C(=O)N2CCC[C@@](Cc3ccc(Cl)cc3)(C2)NC1=O` [Compound 17, (3R, 7S, 10S, 13R)-3-benzyl-6-((5-chloro-3-(4-(2-((dimethylamino)methyl)-1-methyl-1H-imidazol-5-yl)phenoxy)pyridin-2-yl)methyl)-13-(4-chlorobenzyl)-10-(methoxymethyl)-7-methyl-1,6,9,12-tetraazabicyclo[11.3.1]heptadecane-2,5,8,11-tetraone], for which the IC50 turned out to be 0.327 nM and the Max % inhibition stood at 102.6%.
The like results for `C[C@H]1C(=O)N[C@@H](CO)C(=O)N(C)[C@@]2(Cc3ccc(Cl)cc3)CCCN(C2)C(=O)[C@H](Cc2ccccn2)CC(=O)N1Cc1ccc(Cl)cc1Oc1ccc(-c2cnc(CN(C)C)n2C)cc1` [Compound 18, (3R,7S,10S,13R)-6-(4-Chloro-2-(4-(2-((dimethylamino)methyl)-1-methyl-1H-imidazol-5-yl)phenoxy)benzyl)-13-(4-chlorobenzyl)-10-(hydroxymethyl)-7,12-dimethyl-3-(pyridin-2-ylmethyl)-1,6,9,12-tetraazabicyclo[11.3.1]heptadecane-2,5,8,11-tetraone] were, in that order, 0.549 nM and 104.5%.
For the compound `C[C@H]1C(=O)N[C@@H](CO)C(=O)N[C@@]2(Cc3ccc(Cl)cc3)CCCN(C2)C(=O)[C@H](Cc2cccnc2)CC(=O)N1Cc1ccc(Cl)cc1Oc1ccc(-c2cnc(CN(C)C)n2C)cc1.Cl` [Compound 19, (3R,7S,10S,13R)-6-(4-chloro-2-(4-(2-((dimethylamino)methyl)-1-methyl-1H-imidazol-5-yl)phenoxy)benzyl)-13-(4-chlorobenzyl)-10-(hydroxymethyl)-7-methyl-3-(pyridin-3-ylmethyl)-1,6,9,12-tetraazabicyclo[11.3.1]heptadecane-2,5,8,11-tetraone hydrochloride], the IC50 is 0.45 nM and the Max % inhibition is on record as 105.3%.
For `C[C@H]1C(=O)N[C@@H](CO)C(=O)N(C)[C@@]2(Cc3ccc(Cl)cc3)CCCN(C2)C(=O)[C@H](CC(F)(F)F)CC(=O)N1Cc1ccc(Cl)cc1Oc1ccc(-c2cnc(CN(C)C)n2C)cc1` [Compound 20, (3S, 7S, 10S, 13R)-6-(4-chloro-2-(4-(2-((dimethylamino)methyl)-1-methyl-1H-imidazol-5-yl)phenoxy)benzyl)-13-(4-chlorobenzyl)-10-(hydroxymethyl)-7,12-dimethyl-3-(2,2,2-trifluoroethyl)-1,6,9,12-tetraazabicyclo[11.3.1]heptadecane-2,5,8,11-tetraone], the IC50 worked out at 0.187 nM and the Max % inhibition is listed as 117.5%.
On to `COC[C@@H]1NC(=O)[C@H](C)N(Cc2ccc(Cl)cc2Oc2ccc(-c3cnc(CN(C)C)n3C)cc2)C(=O)C[C@@H](Cc2ccccn2)C(=O)N2CCC[C@@](Cc3ccc(Cl)cc3)(C2)NC1=O` [Compound 21, (3R,7S,10S,13R)-6-(4-Chloro-2-(4-(2-((dimethylamino)methyl)-1-methyl-1H-imidazol-5-yl)phenoxy)benzyl)-13-(4-chlorobenzyl)-10-(methoxymethyl)-7-methyl-3-(pyridin-2-ylmethyl)-1,6,9,12-tetraazabicyclo[11.3.1]heptadecane-2,5,8,11-tetraone], for which the IC50 was found to be 0.47 nM and the Max % inhibition is on record as 107.0%.
Regarding `COC[C@@H]1NC(=O)[C@H](C)N(Cc2c(F)cc(Cl)cc2Oc2ccc(-c3cnc(CN(C)C)n3C)cc2)C(=O)C[C@@H](CC(F)(F)F)C(=O)N2CCC[C@@](Cc3ccc(Cl)cc3)(C2)N(C)C1=O` [Compound 22, (3S,7S,10S,13R)-6-(4-Chloro-2-(4-(2-((dimethylamino)methyl)-1-methyl-1H-imidazol-5-yl)phenoxy)-6-fluorobenzyl)-13-(4-chlorobenzyl)-10-(methoxymethyl)-7,12-dimethyl-3-(2,2,2-trifluoroethyl)-1,6,9,12-tetraazabicyclo[11.3.1]heptadecane-2,5,8,11-tetraone], the IC50 is 0.159 nM and the Max % inhibition was 101.9%.
Turning to `COC[C@@H]1NC(=O)[C@H](C)N(Cc2ccc(Cl)cc2Oc2ccc(-c3cnc(CN(C)C)n3C)cc2)C(=O)C[C@@H](Cc2cccnc2)C(=O)N2CCC[C@@](Cc3ccc(Cl)cc3)(C2)NC1=O.Cl` [Compound 23, (3R, 7S, 10S, 13R)-6-(4-chloro-2-(4-(2-((dimethylamino)methyl)-1-methyl-1H-imidazol-5-yl)phenoxy)benzyl)-13-(4-chlorobenzyl)-10-(methoxymethyl)-7-methyl-3-(pyridin-3-ylmethyl)-1,6,9,12-tetraazabicyclo[11.3.1]heptadecane-2,5,8,11-tetraone], the half-inhibitory concentration (IC50) amounted to 0.463 nM and the Max % inhibition turned out to be 109.3%.
In the case of `COC[C@@H]1NC(=O)[C@H](C)N(Cc2ccc(Cl)cc2Oc2ccc(-c3cnc(CN(C)C)n3C)nc2)C(=O)C[C@@H](Cc2cccc(C)n2)C(=O)N2CCC[C@@](Cc3ccc(Cl)cc3)(C2)N(C)C1=O` [Compound 24, (3R, 7S, 10S, 13R)-6-(4-chloro-2-((6-(2-((dimethylamino)methyl)-1-methyl-1H-imidazol-5-yl)pyridin-3-yl)oxy)benzyl)-13-(4-chlorobenzyl)-10-(methoxymethyl)-7,12-dimethyl-3-((6-methylpyridin-2-yl)methyl)-1,6,9,12-tetraazabicyclo[11.3.1]heptadecane-2,5,8,11-tetraone], the half-maximal inhibitory concentration (IC50) was 0.277 nM and the Max % inhibition turned out to be 115.7%.
The like results for `C[C@H]1C(=O)N[C@@H](CO)C(=O)N[C@@]2(Cc3ccc(Cl)cc3)CCCN(C2)C(=O)[C@H](Cc2ccccc2)CC(=O)N1Cc1ccc(Cl)c(F)c1Oc1ccc(-c2cnc(CN(C)C)n2C)cc1` [Compound 25, (3R, 7S, 10S, 13R)-3-benzyl-6-(4-chloro-2-(4-(2-((dimethylamino)methyl)-1-methyl-1H-imidazol-5-yl)phenoxy)-3-fluorobenzyl)-13-(4-chlorobenzyl)-10-(hydroxymethyl)-7-methyl-1,6,9,12-tetraazabicyclo[11.3.1]heptadecane-2,5,8,11-tetraone] were, in that order, 0.438 nM and 100.8%.
For `CC[C@@H]1CC(=O)N(Cc2ccc(Cl)cc2Oc2ccc(-c3cnc(CN4CCCC4)n3C)cc2)[C@@H](C)C(=O)N[C@@H](CO)C(=O)N[C@@]2(Cc3ccc(Cl)cc3)CCCN(C2)C1=O` [Compound 26, (3R, 7S, 10S, 13R)-6-(4-chloro-2-(4-(1-methyl-2-(pyrrolidin-1-ylmethyl)-1H-imidazol-5-yl)phenoxy)benzyl)-13-(4-chlorobenzyl)-3-ethyl-10-(hydroxymethyl)-7-methyl-1,6,9,12-tetraazabicyclo[11.3.1]heptadecane-2,5,8,11-tetraone], the IC50 stood at 0.48 nM and the Max % inhibition is 98.3%.

These data come from patent US11813306B2, “Cyclic tetramer compounds as proprotein convertase subtilisin/kexin type 9 (PCSK9) inhibitors for the treatment of metabolic disorders” (NOVARTIS AG, priority 2018, dated 2023).
